Assay results reported in patent publication US20250205344A1, “2,4-DIOXOTETRAHYDROPYRIMIDINYL DERATIVES AS DEGRONS IN PROTACS” (GLAXOSMITHKLINE INTELLECTUAL PROPERTY DEVELOPMENT LIMITED, priority 2022, published 2025).
Where a name gives a salt, the structure may show the parent alone.

These compounds were tested against T1, Androgen Receptor (Homo sapiens, UniProt P10275, T878A) (assay: Androgen Receptor Degradation Assay (Nano-Glo HiBiT)). Conditions: LNCaP, 18 h, HiBiT-tagged AR in human LnCaP cells, read-out: mean asymptote max.
T1 construct: the AR gene was modified, using CRISPR/Cas9 editing, so the expressed AR protein included an 11 amino acid HiBiT tag; endogenous in cells; host or cells: clonal LnCaP-derived line, AR gene edited by CRISPR/Cas9
Format: cell-based
Summary of the method: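 LnCaP cells with CRISPR-knocked-in N-terminal HiBiT-tagged AR (10,000/well) treated 18 h at 37 °C with PROTACs over 11 threefold concentrations; lytic HiBiT luminescence normalised to DMSO (0%) and cell-free (100%) controls. Relative DC50 = 4-parameter fit inflection; absolute DC50 = 50% degradation interpolation; Dmax = maximum observed degradation.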

T1 sequence (P10275 whole entry T878A): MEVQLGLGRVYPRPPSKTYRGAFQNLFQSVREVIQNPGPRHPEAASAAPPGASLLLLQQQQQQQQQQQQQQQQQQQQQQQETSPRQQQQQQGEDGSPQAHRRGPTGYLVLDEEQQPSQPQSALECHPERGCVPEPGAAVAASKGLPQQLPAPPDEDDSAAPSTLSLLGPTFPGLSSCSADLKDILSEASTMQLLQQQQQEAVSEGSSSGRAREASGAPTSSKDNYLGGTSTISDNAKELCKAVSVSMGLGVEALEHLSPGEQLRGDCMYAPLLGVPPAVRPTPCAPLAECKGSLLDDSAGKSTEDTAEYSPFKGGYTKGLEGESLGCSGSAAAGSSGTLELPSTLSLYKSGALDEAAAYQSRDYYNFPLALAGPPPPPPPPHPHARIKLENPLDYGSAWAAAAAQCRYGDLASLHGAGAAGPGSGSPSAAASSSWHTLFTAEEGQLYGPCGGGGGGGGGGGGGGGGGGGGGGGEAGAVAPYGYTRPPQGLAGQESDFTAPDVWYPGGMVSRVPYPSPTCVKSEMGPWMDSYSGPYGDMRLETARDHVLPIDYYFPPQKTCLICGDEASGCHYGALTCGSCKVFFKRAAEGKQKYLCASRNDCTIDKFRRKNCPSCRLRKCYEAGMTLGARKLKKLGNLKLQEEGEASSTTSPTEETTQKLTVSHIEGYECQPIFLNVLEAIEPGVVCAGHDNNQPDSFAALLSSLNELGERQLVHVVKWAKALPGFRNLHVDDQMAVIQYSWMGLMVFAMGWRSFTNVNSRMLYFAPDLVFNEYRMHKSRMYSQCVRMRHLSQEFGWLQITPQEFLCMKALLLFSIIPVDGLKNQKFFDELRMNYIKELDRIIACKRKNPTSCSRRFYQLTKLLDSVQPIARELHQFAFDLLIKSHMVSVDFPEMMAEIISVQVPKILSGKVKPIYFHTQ
T1 sequence (Q96SW2 whole entry partner): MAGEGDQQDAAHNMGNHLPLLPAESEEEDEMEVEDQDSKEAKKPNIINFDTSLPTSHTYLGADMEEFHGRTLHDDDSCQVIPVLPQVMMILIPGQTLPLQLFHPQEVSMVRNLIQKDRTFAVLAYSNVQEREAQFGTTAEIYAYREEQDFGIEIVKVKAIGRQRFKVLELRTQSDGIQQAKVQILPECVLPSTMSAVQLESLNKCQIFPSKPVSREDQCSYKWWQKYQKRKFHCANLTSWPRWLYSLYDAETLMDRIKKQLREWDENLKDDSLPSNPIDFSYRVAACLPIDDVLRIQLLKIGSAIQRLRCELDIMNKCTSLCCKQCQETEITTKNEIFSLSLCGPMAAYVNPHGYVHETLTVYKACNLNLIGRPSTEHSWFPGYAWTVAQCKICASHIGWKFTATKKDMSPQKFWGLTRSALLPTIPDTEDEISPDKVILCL
T1 sequence (Q16531 whole entry partner): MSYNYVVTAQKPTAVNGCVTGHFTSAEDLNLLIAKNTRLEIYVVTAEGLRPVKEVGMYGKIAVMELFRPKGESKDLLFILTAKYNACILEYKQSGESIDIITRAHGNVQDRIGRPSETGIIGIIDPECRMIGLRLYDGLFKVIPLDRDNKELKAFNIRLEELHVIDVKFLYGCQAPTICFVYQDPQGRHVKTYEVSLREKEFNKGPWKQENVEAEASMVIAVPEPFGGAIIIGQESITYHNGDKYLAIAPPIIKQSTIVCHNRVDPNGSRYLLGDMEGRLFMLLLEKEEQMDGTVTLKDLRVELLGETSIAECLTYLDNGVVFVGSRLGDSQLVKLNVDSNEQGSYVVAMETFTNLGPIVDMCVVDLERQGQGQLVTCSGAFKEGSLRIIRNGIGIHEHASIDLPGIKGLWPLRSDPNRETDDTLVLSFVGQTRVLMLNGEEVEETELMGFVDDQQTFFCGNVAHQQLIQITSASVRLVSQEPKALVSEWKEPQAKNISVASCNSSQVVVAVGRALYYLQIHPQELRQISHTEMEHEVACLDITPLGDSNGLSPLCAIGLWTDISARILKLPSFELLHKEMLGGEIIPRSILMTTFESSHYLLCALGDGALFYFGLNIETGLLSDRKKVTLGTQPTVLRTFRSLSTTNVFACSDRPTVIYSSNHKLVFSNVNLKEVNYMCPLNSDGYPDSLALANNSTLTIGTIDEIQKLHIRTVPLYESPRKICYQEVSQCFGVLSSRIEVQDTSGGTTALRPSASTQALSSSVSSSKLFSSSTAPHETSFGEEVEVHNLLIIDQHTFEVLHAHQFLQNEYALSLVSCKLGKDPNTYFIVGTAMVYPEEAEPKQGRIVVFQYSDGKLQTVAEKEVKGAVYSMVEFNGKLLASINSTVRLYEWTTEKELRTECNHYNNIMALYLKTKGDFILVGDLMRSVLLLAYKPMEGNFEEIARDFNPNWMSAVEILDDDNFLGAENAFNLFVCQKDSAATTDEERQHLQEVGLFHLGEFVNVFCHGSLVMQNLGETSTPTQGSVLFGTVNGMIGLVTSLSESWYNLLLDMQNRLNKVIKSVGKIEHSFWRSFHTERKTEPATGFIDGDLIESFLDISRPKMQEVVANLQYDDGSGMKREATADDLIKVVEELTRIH

Row | Dmax | Structure (SMILES)
1 | ≥ 50% | CC(C)n1ccc2c(N3CCC(=O)NC3=O)cc(C(=O)N3CCN(CCCCCCc4ccc(C(=O)N[C@H]5C(C)(C)[C@H](Oc6ccc(C#N)c(C(F)(F)F)c6)C5(C)C)cc4)CC3)cc21 [EAR87, N-((1r,3r)-3-(4-Cyano-3-(trifluoromethyl)phenoxy)-2,2,4,4-tetramethylcyclobutyl)-4-(6-(4-(4-(2,4-dioxotetrahydropyrimidin-1(2H)-yl)-1-isopropyl-1H-indole-6-carbonyl)piperazin-1-yl)hexyl)benzamide]
2 | ≥ 50% | N#Cc1ccc(O[C@H]2CC[C@H](NC(=O)c3ccc(N4CCC(CN5CCC(n6ncc7c(N8CCC(=O)NC8=O)cc(F)cc76)CC5)CC4)nn3)CC2)cc1Cl [EAR33, N-((1r,4r)-4-(3-Chloro-4-cyanophenoxy)cyclohexyl)-6-(4-((4-(4-(2,4-dioxotetrahydropyrimidin-1(2H)-yl)-6-fluoro-1H-indazol-1-yl)piperidin-1-yl)methyl)piperidin-1-yl)pyridazine-3-carboxamide]
3 | ≥ 50% | N#Cc1ccc(O[C@H]2CC[C@H](NC(=O)c3ccc(C4CCN(CC(=O)N5CCC(n6ncc7c(N8CCC(=O)NC8=O)cccc76)CC5)CC4)nn3)CC2)cc1Cl [EAR167, N-((1r,4r)-4-(3-Chloro-4-cyanophenoxy)cyclohexyl)-6-(1-(2-(4-(4-(2,4-dioxotetrahydropyrimidin-1(2H)-yl)-1H-indazol-1-yl)piperidin-1-yl)-2-oxoethyl)piperidin-4-yl)pyridazine-3-carboxamide]
4 | ≥ 50% | N#Cc1ccc(O[C@H]2CC[C@H](NC(=O)c3ccc(N4CCC(CN5CCC(n6ccc7c(N8CCC(=O)NC8=O)cc(C(F)(F)F)cc76)CC5)CC4)nn3)CC2)cc1Cl [EAR176, N-((1r,4r)-4-(3-chloro-4-cyanophenoxy)cyclohexyl)-6-(4-((4-(4-(2,4-dioxotetrahydropyrimidin-1(2H)-yl)-6-(trifluoromethyl)-1H-indol-1-yl)piperidin-1-yl)methyl)piperidin-1-yl)pyridazine-3-carboxamide]
5 | ≥ 50% | CC(C1CCN(c2ccc(C(=O)N[C@H]3CC[C@H](Oc4ccc(C#N)c(Cl)c4)CC3)nn2)CC1)N1CCC(n2ccc3c(N4CCC(=O)NC4=O)cncc32)CC1 (some centres unmarked) [EAR135, N-((1r,4r)-4-(3-Chloro-4-cyanophenoxy)cyclohexyl)-6-(4-(1-(4-(4-(2,4-dioxotetrahydropyrimidin-1(2H)-yl)-1H-pyrrolo[2,3-c]pyridin-1-yl)piperidin-1-yl)ethyl)piperidin-1-yl)pyridazine-3-carboxamide]
6 | ≥ 50% | N#Cc1ccc(O[C@H]2CC[C@H](NC(=O)c3cnc(N4CCC(CN5CCC(n6ccc7c(N8CCC(=O)NC8=O)cncc76)CC5)CC4)nc3)CC2)cc1C(F)(F)F [AR17, N-((1r,4r)-4-(4-Cyano-3-(trifluoromethyl)phenoxy)cyclohexyl)-2-(4-((4-(4-(2,4-dioxotetrahydropyrimidin-1(2H)-yl)-1H-pyrrolo[2,3-c]pyridin-1-yl)piperidin-1-yl)methyl)piperidin-1-yl)pyrimidine-5-carboxamide]
7 | ≥ 50% | N#Cc1ccc(O[C@H]2CC[C@H](NC(=O)c3ccc(N4C[C@@H]5[C@H](CN6CCC(n7ncc8c(N9CCC(=O)NC9=O)cccc87)CC6)[C@@H]5C4)nn3)CC2)cc1Cl [EAR235, N-((1r,4R)-4-(3-chloro-4-cyanophenoxy)cyclohexyl)-6-((1R,5S,6R)-6-((4-(4-(2,4-dioxotetrahydropyrimidin-1(2H)-yl)-1H-indazol-1-yl)piperidin-1-yl)methyl)-3-azabicyclo[3.1.0]hexan-3-yl)pyridazine-3-carboxamide]
8 | ≥ 50% | N#Cc1ccc(O[C@H]2CC[C@H](NC(=O)c3cnc(N4CCC(CN5CCC(n6ncc7c(N8CCC(=O)NC8=O)cccc76)CC5)CC4)cn3)CC2)cc1Cl [EAR39, N-((1r,4r)-4-(3-Chloro-4-cyanophenoxy)cyclohexyl)-5-(4-((4-(4-(2,4-dioxotetrahydropyrimidin-1(2H)-yl)-1H-indazol-1-yl)piperidin-1-yl)methyl)piperidin-1-yl)pyrazine-2-carboxamide hydrochloride]
9 | ≥ 50% | N#Cc1ccc(O[C@H]2CC[C@H](NC(=O)c3cnc(N4CCC(CN5CCC(n6ccc7c(N8CCC(=O)NC8=O)cncc76)CC5)CC4)cn3)CC2)cc1C(F)(F)F [AR15, N-((1r,4r)-4-(4-Cyano-3-(trifluoromethyl)phenoxy)cyclohexyl)-5-(4-((4-(4-(2,4-dioxotetrahydropyrimidin-1(2H)-yl)-1H-pyrrolo[2,3-c]pyridin-1-yl)piperidin-1-yl)methyl)piperidin-1-yl)pyrazine-2-carboxamide]
10 | ≥ 50% | N#Cc1ccc(O[C@H]2CC[C@H](NC(=O)c3ccc(N4CCC(N5CCC(Cn6ccc7c(N8CCC(=O)NC8=O)cccc76)CC5)CC4)nn3)CC2)cc1Cl [EAR27, N-((1r,4r)-4-(3-Chloro-4-cyanophenoxy)cyclohexyl)-6-(4-((4-(2,4-dioxotetrahydropyrimidin-1(2H)-yl)-1H-indol-1-yl)methyl)-[1,4′-bipiperidin]-1′-yl)pyridazine-3-carboxamide hydrochloride]
11 | ≥ 50% | CC1(C)[C@H](NC(=O)c2ccc(N3CCC(CN4CCC(n5ccc6c(N7CCC(=O)NC7=O)cccc65)CC4)CC3)nn2)C(C)(C)[C@H]1Oc1ccc(C#N)c(Cl)c1 [EAR55, N-((1r,3r)-3-(3-Chloro-4-cyanophenoxy)-2,2,4,4-tetramethylcyclobutyl)-6-(4-((4-(4-(2,4-dioxotetrahydropyrimidin-1(2H)-yl)-1H-indol-1-yl)piperidin-1-yl)methyl)piperidin-1-yl)pyridazine-3-carboxamide]

Row | Structure (SMILES) | Dmax
12 | C[C@@H]1CN(c2ccc(C#N)c(Cl)c2)[C@@H](C)CN1C(=O)c1ccc(N2CCC(CN3CCC(n4ncc5c(N6CCC(=O)NC6=O)cncc54)CC3)CC2)nn1 [EAR146, 2-Chloro-4-((2S,5R)-4-(6-(4-((4-(4-(2,4-dioxotetrahydropyrimidin-1(2H)-yl)-1H-pyrazolo[3,4-c]pyridin-1-yl)piperidin-1-yl)methyl)piperidin-1-yl)pyridazine-3-carbonyl)-2,5-dimethylpiperazin-1-yl)benzonitrile] | ≥ 50%
13 | CN(c1ccc(C#N)c(Cl)c1)[C@H]1CC[C@H](NC(=O)c2ccc(N3CCC(CN4CCC(n5ccc6c(N7CCC(=O)NC7=O)ncnc65)CC4)CC3)nn2)CC1 [EAR214, N-((1r,4r)-4-((3-Chloro-4-cyanophenyl)(methyl)amino)cyclohexyl)-6-(4-((4-(4-(2,4-dioxotetrahydropyrimidin-1(2H)-yl)-7H-pyrrolo[2,3-d]pyrimidin-7-yl)piperidin-1-yl)methyl)piperidin-1-yl)pyridazine-3-carboxamide hydrochloride] | ≥ 50%
14 | N#Cc1ccc(O[C@H]2CC[C@H](NC(=O)c3ccc(N4CC5CC(C4)C5CN4CCC(n5ncc6c(N7CCC(=O)NC7=O)cccc65)CC4)nn3)CC2)cc1Cl (some centres unmarked) [EAR228, N-((1r,4r)-4-(3-chloro-4-cyanophenoxy)cyclohexyl)-6-(6-((4-(4-(2,4-dioxotetrahydropyrimidin-1(2H)-yl)-1H-indazol-1-yl)piperidin-1-yl)methyl)-3-azabicyclo[3.1.1]heptan-3-yl)pyridazine-3-carboxamide] | ≥ 50%
15 | N#Cc1ccc(O[C@H]2CC[C@H](NC(=O)c3ccc(N4CCC[C@@H](CN5CCC(n6ncc7c(N8CCC(=O)NC8=O)cccc76)CC5)C4)nn3)CC2)cc1Cl (single isomer, unassigned) [EAR137] | ≥ 50%
16 | CC1(C)C(=O)N(c2ccc(C#N)c(C(F)(F)F)c2)C(=S)N1c1ccc(N2CCC(CN3CCC(n4ncc5c(N6CCC(=O)NC6=O)cncc54)CC3)CC2)cc1 [EAR98, 4-(3-(4-(4-((4-(4-(2,4-Dioxotetrahydropyrimidin-1(2H)-yl)-1H-pyrazolo[3,4-c]pyridin-1-yl)piperidin-1-yl)methyl)piperidin-1-yl)phenyl)-4,4-dimethyl-5-oxo-2-thioxoimidazolidin-1-yl)-2-(trifluoromethyl)benzonitrile] | ≥ 50%
17 | CC1(C)C(=O)N(c2ccc(C#N)c(C(F)(F)F)c2)C(=S)N1c1ccc(N2CCC(N3CCC(n4ccc5c(N6CCC(=O)NC6=O)cncc54)CC3)CC2)cc1 [EAR96, 4-(3-(4-(4-(4-(2,4-Dioxotetrahydropyrimidin-1(2H)-yl)-1H-pyrrolo[2,3-c]pyridin-1-yl)-[1,4′-bipiperidin]-1′-yl)phenyl)-4,4-dimethyl-5-oxo-2-thioxoimidazolidin-1-yl)-2-(trifluoromethyl)benzonitrile formate] | ≥ 50%
18 | C[C@@H]1CN(c2ccc(C#N)c(Cl)c2)[C@@H](C)CN1C(=O)Nc1ccc(OCCCCN2CCC(n3ccc4c(N5CCC(=O)NC5=O)cccc43)CC2)nc1 [EAR109, (2R,5S)-4-(3-Chloro-4-cyanophenyl)-N-(6-(4-(4-(4-(2,4-dioxotetrahydropyrimidin-1(2H)-yl)-1H-indol-1-yl)piperidin-1-yl)butoxy)pyridin-3-yl)-2,5-dimethylpiperazine-1-carboxamide] | ≥ 50%
19 | C[C@@H]1CN(C(=O)Nc2ccc(N3CCC(CN4CCC(n5ncc6c(N7CCC(=O)NC7=O)cccc65)CC4)CC3)nc2)[C@@H](C)CN1c1ccc(C#N)c(Cl)c1 [EAR138, (2S,5R)-4-(3-Chloro-4-cyanophenyl)-N-(6-(4-((4-(4-(2,4-dioxotetrahydropyrimidin-1(2H)-yl)-1H-indazol-1-yl)piperidin-1-yl)methyl)piperidin-1-yl)pyridin-3-yl)-2,5-dimethylpiperazine-1-carboxamide, formic acid salt] | ≥ 50%
20 | C[C@@H]1CN(c2ccc(C#N)c(Cl)c2)[C@@H](C)CN1C(=O)c1cnc(N2CCC(CN3CCC(n4ccc5c(N6CCC(=O)NC6=O)cncc54)CC3)CC2)cn1 [EAR147, 2-Chloro-4-((2S,5R)-4-(5-(4-((4-(4-(2,4-dioxotetrahydropyrimidin-1(2H)-yl)-1H-pyrrolo[2,3-c]pyridin-1-yl)piperidin-1-yl)methyl)piperidin-1-yl)pyrazine-2-carbonyl)-2,5-dimethylpiperazin-1-yl)benzonitrile] | ≥ 50%
